Measured values reported in patent US4835251A, “Method of chain combination” (Genetech, Inc., priority 1986, dated 1989).
Ends that are not written are not given here.

System: interpubic ligament
Experiment: murine pubic symphysis assay (MPS)
Format: in vivo, mice
Details: for biological activity in the MPS assay (biological dose response comparison): estradiol-primed female mice, subcutaneous injection, ligament measured 18-20 hours later
Description: The human relaxin and human relaxin analogs were tested in bioassays. The murine pubic symphysis assay (MPS) uses Charles River albino CFW female mice weighing 18-20 g., J. St. Louis, Can. J. Physiol. Pharmacol. 59, 507-512 (1981). Estradiol priming solution is 5 μg estradiol 17β-cyclopentylpropionate in 0.1 ml peanut oil. Human relaxin dose solutions are at concentrations of 2.5, 5.0, 10.0, 20.0, 40.0, and 80.0 μg/ml in a 1% water solution of benzopurpurine 4B. When mice have been housed for at least six days in quarantine and weigh 18-20 g, each one is given a subcutaneous injection of estradiol priming solution. Exactly seven days later mice are injected subcutaneously with 0.2 ml of the appropriate human relaxin dose solution. Between 18 and 20 hours after the human relaxin injection the mice were sacrificed by cervical dislocation. The interpubic ligament is exposed and measured with a micrometer.
The rat uterine contractility in vitro bioassay measures human relaxin ability to relax smooth muscle in the presence of electrically stimulated contractions, J. St. Louis, (1981) Can. J. Physiol. Pharmacol. 59, 507-512. The murine pubic symphysis ligament in vivo bioassay measures relaxin's remodeling effect on connective tissue, Steinetz, B. G. et al. (1960) Endocrinology 67, 102. […] The MPS does responses indicate equipotence for natural human relaxin and H2(B2-33 A24) B Lys^4 B Ala^25, FIG. 3. […] All of the human analogues and natural sequence human relaxin are essentially indistinguishable in the MPS bioassay.

Molecule	biological activity in the MPS assay (biological dose response comparison)	MPS dose response curve, slope / parallelism relative to the other relaxins (mouse, in vivo)
CC[C@H](C)[C@@H]1NC(=O)[C@H](C)NC(=O)[C@H]([C@@H](C)CC)NC(=O)[C@H](CCC(N)=O)NC(=O)[C@H](C)NC(=O)[C@H](CCCNC(=N)N)NC(=O)[C@H](C(C)C)NC(=O)[C@H](CC(C)C)NC(=O)[C@H](CCC(=O)O)NC(=O)[C@H](CCCNC(=N)N)NC(=O)CNC(=O)[C@@H](NC(=O)[C@H](CC(C)C)NC(=O)[C@H](CCCCN)NC(=O)[C@@H](NC(=O)[C@@H](NC(=O)[C@H](CCC(=O)O)NC(=O)[C@H](CCC(=O)O)NC(=O)[C@H](CCCCN)NC(=O)[C@H](Cc2c[nH]c3ccccc23)NC(=O)[C@H](CO)NC(=O)[C@@H](N)CC(=O)O)C(C)C)[C@@H](C)CC)CSSC[C@@H]2NC(=O)[C@@H](NC(=O)[C@H](CCCCN)NC(=O)[C@H](CC(N)=O)NC(=O)[C@H](C)NC(=O)[C@H](CC(C)C)NC(=O)[C@H](C)NC(=O)[C@H](CO)NC(=O)[C@H](Cc3ccc(O)cc3)NC(=O)[C@H](CC(C)C)NC(=O)[C@@H]3CCC(=O)N3)CSSC[C@H](NC(=O)CNC(=O)[C@H](C(C)C)NC(=O)[C@H](Cc3c[nH]cn3)NC2=O)C(=O)N[C@@H]([C@@H](C)O)C(=O)N[C@@H](CCCCN)C(=O)N[C@@H](CCCNC(=N)N)C(=O)N[C@@H](CO)C(=O)N[C@@H](CC(C)C)C(=O)N[C@@H](C)C(=O)N[C@@H](CCCNC(=N)N)C(=O)N[C@@H](Cc2ccccc2)C(=O)N[C@H](C(=O)O)CSSC[C@@H](C(=O)NCC(=O)N[C@@H](C)C(=O)N[C@@H](CO)C(=O)N[C@H](C(=O)N[C@@H](Cc2c[nH]c3ccccc23)C(=O)N[C@@H](CO)C(=O)N[C@@H](CCCCN)C(=O)N[C@@H](CCCNC(=N)N)C(=O)N[C@@H](CO)C(=O)N[C@@H](CC(C)C)C(=O)O)[C@@H](C)O)NC1=O	biological activity	
porcine relaxin: Porcine relaxin, used for the standard curve in the RUC assay and compared in MPS (Relaxin B chain QSTNDFIKACGRELVRLWVEICGSVSWGRTAL; Relaxin A chain RMTLSEKCCQVGCIRKDIARLC; not fully specified; ends and bridges not checked; UniProt P01348 25-56; P01348 161-182, looked up) [reference compound]		non-parallel response
CC[C@H](C)[C@@H]1NC(=O)[C@H](C)NC(=O)[C@H]([C@@H](C)CC)NC(=O)[C@H](CCC(N)=O)NC(=O)[C@H](C)NC(=O)[C@H](CCCNC(=N)N)NC(=O)[C@H](C(C)C)NC(=O)[C@H](CC(C)C)NC(=O)[C@H](CCC(=O)O)NC(=O)[C@H](CCCNC(=N)N)NC(=O)CNC(=O)[C@@H](NC(=O)[C@H](CC(C)C)NC(=O)[C@H](CCCCN)NC(=O)[C@@H](NC(=O)[C@@H](NC(=O)[C@H](CCC(=O)O)NC(=O)[C@H](CCC(=O)O)NC(=O)[C@H](CCCCN)NC(=O)[C@H](Cc2c[nH]c3ccccc23)NC(=O)[C@@H](N)CO)C(C)C)[C@@H](C)CC)CSSC[C@@H]2NC(=O)[C@@H](NC(=O)[C@H](CCCCN)NC(=O)[C@H](CC(N)=O)NC(=O)[C@H](C)NC(=O)[C@H](CC(C)C)NC(=O)[C@H](C)NC(=O)[C@H](CO)NC(=O)[C@H](Cc3ccc(O)cc3)NC(=O)[C@H](CC(C)C)NC(=O)[C@@H]3CCC(=O)N3)CSSC[C@H](NC(=O)CNC(=O)[C@H](C(C)C)NC(=O)[C@H](Cc3c[nH]cn3)NC2=O)C(=O)N[C@@H]([C@@H](C)O)C(=O)N[C@@H](CCCCN)C(=O)N[C@@H](CCCNC(=N)N)C(=O)N[C@@H](CO)C(=O)N[C@@H](CC(C)C)C(=O)N[C@@H](C)C(=O)N[C@@H](CCCNC(=N)N)C(=O)N[C@@H](Cc2ccccc2)C(=O)N[C@H](C(=O)O)CSSC[C@@H](C(=O)NCC(=O)N[C@@H](C)C(=O)N[C@@H](CO)C(=O)N[C@H](C(=O)N[C@@H](Cc2c[nH]c3ccccc23)C(=O)N[C@@H](CO)C(=O)N[C@@H](CCCCN)C(=O)N[C@@H](CCCNC(=N)N)C(=O)N[C@@H](CO)C(=O)N[C@@H](CC(C)C)C(=O)O)[C@@H](C)O)NC1=O	biological activity	
